Data published in the Kinase Knowledgebase extract (Sharma et al. 2016).

How the values were obtained:
[1] = biological target: EGFR (human), P00533 [WT]
EGFR (human) [2] = biological target: EGFR (human) (UniProt P00533); conditions: hcc827
EGFR (human) [3] = biological target: EGFR (human) (UniProt P00533); conditions: a549
EGFR (human) [4] = biological target: EGFR (human) (UniProt P00533); conditions: h1975
[5] = biological target: EGFR (human), P00533 [L858R]
Sequence of EGFR (human), P00533 [L858R] (P00533 whole entry L858R, looked up): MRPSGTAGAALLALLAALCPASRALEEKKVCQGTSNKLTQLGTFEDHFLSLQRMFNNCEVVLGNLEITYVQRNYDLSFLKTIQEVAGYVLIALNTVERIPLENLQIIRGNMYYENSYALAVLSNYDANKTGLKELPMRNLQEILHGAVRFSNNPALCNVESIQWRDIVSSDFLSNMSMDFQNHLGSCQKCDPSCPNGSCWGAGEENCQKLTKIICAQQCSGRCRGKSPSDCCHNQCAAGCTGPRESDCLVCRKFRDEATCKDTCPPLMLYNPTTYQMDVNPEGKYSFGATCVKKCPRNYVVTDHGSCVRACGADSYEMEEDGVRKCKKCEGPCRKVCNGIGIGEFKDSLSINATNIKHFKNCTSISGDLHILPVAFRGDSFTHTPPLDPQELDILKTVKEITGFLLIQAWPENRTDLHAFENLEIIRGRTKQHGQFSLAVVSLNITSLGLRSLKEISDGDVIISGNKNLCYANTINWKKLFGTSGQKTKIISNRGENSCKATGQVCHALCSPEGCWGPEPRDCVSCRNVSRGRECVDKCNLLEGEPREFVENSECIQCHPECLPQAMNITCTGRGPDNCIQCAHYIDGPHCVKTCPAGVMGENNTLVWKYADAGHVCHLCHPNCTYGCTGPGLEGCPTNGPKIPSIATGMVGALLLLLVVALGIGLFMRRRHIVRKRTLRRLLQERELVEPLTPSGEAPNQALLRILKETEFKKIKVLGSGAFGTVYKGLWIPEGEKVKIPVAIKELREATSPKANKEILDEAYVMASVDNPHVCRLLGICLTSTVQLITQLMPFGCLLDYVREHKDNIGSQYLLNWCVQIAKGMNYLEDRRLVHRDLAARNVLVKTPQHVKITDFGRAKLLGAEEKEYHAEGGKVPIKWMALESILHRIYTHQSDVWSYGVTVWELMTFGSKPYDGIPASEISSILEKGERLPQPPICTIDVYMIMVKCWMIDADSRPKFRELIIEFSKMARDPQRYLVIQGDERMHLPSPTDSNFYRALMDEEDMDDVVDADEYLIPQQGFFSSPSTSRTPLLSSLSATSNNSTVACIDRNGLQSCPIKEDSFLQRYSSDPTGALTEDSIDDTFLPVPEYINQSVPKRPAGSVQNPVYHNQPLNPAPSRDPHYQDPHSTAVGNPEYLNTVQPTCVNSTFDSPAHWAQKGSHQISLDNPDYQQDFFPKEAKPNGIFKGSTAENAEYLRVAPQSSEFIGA

Sequence of EGFR (human) (P00533 whole entry, looked up): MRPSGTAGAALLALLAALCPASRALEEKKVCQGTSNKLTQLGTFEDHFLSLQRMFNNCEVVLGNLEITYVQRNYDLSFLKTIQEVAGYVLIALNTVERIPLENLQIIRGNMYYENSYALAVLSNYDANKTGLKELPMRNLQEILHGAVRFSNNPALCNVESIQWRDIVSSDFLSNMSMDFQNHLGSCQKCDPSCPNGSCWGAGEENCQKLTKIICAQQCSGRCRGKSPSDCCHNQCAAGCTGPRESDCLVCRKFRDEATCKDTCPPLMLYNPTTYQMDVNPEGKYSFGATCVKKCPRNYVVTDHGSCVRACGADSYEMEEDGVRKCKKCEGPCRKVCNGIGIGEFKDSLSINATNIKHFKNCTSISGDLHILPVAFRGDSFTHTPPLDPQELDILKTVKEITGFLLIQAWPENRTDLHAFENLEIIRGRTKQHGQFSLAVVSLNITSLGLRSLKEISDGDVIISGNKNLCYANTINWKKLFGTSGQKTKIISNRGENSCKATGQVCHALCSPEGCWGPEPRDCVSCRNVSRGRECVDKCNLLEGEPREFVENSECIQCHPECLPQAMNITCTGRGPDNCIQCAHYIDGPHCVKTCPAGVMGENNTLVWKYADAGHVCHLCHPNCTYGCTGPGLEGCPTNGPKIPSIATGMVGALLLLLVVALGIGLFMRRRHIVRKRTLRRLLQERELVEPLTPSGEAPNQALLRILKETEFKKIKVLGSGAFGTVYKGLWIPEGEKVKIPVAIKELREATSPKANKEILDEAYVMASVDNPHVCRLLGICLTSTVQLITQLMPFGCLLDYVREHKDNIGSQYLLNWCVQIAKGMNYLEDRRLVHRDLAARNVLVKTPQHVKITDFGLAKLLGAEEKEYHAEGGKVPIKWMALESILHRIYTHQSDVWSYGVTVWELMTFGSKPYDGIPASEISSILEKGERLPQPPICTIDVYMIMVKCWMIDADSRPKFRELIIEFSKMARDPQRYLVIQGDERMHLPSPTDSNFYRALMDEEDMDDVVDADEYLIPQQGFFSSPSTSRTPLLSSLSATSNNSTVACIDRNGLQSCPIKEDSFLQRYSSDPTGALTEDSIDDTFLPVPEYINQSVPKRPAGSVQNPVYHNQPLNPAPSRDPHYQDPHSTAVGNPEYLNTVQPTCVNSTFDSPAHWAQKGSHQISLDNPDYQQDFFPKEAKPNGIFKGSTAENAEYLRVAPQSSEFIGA
Sequence of EGFR (human), P00533 [WT] (P00533 whole entry, looked up): as above

IC50 [1] | IC50 (EGFR (human) [2]) | IC50 (EGFR (human) [3]) | IC50 (EGFR (human) [4]) | IC50 [5] | SMILES
> 16 µM | 2.51 µM | 1.19 µM | 1.46 µM | > 16 µM | COc1cc2c(Oc3ccc(NC(=O)C4=C(C)N(C)C(c5ccccc5)C4=O)cc3F)ccnc2cc1OCCCN1CCOCC1 (configuration not stated)
7.67 µM | 2.58 µM | 1.24 µM | 1.06 µM | > 16 µM | COc1cc2c(Oc3ccc(NC(=O)C4=C(C)N(C)C(c5ccccc5)C4=O)cc3F)ccnc2cc1OCCCN1CCN(C)CC1 (configuration not stated)
 |  | > 10 µM | > 10 µM |  | COc1cc2c(Oc3ccc(NS(=O)(=O)c4ccc(-c5cnn(C)c5)cc4)cc3F)ccnc2cc1OCCCN1CCN(C)CC1
